Measured values: patent US20240254508A1, “Multi-Genome Editor Construct and Uses Thereof” (Colossal Biosciences Inc., priority 2023, published 2024)

Legend:
[1] = tested on: Super Editor incorporated HEK293T cells; assay: Editing enzyme induction in Super Editor incorporated HEK293T cells (fluorescent imaging / FACS); type: cell-based; conditions: 1/5/10 μg/mL doxycycline, 30/120/300 μg/mL cumate, 10/40/100 μM TMP, 0.25/1.25/6.25 μM Shield 1, 24-72 hours after treatment
Procedure: FIGS. 3A-3D show fluorescence-activated cell sorting (FACS) of individual editor induction by super editor integrated HEK293T cells. FACS analysis was done for doxycycline induced Cas9 expression (FIG. 3A), cumate induced ABE expression (FIG. 3B), trimethoprim induced CBE expression (FIG. 3C), and shield 1 induced CGBE expression (FIG. 3D). Cells were fixed 72 hours after treatment for FACS quantification. Bar graphs plotting the induction ratios of each dose curve are provided for each different genome editor enzyme induction (FIGS. 3A-3D).
Incorporation of Super Editor in HEK293T cells: 300,000 HEK293T cells were transfected by 4 μg of Super Editor plasmid and 3 μg PiggyBac transposase plasmid using 10 μL of Lipofectamine 2000 according to the manufacturer's protocol in a 6-well plate format. 2 μg/mL doxycycline was supplemented to the cells 48 hours in advance. The transfected cells were enriched twice by Fluorescence-activated cell sorting (FACS) gated with doxycycline induced TagRFP657 (far red) fluorescent signals 1 week and 3 weeks after transfection. The 1st enrichment selected the top 0.2% (10,000 cells) of the TagRFP657+ population. The 2nd enrichment selected the top 5% (374,000 cells) of the TagRFP657+ population.
Doxycycline induced Cas9, reported by TagRFP657 (far red); cumate induced ABE, reported by TagBFP (blue); trimethoprim induced CBE reported by, eGFP (green); Shield 1 induced CGBE, reported by mCherry (red). Cells were analyzed by fluorescent imaging or FACS 24-72 hours after treatment. FACS analysis was performed on 4% PFA fixed samples (FIGS. 3A-3D). Inducers were refreshed everyday with new media.

HEK293T cells = assay: Transient induction of single module plasmids in HEK293T cells; type: cell-based; conditions: 2 μg/ml doxycycline, 120 μg/ml cumate, 10 μM TMP, 6.25 μM shield 1
Procedure: HEK293T cells were transfected with the single module plasmids comprising the corresponding regulatory element. The HEK293T cells were treated with the corresponding inducers to generate expression of the genome editing enzyme along with the fluorescent marker accompanying each genome editing enzyme. HEK293T cells were transfected with a doxycycline inducible Cas9 editing enzyme, a cumate inducible ABE, a trimethoprim (TMP) inducible CBE, and a shield 1 inducible CGBE.

SMILES	induction of editing enzyme expression, reported by fluorescent protein [1]	expression of genome editing enzyme and fluorescent marker after inducer treatment (HEK293T cells)
CC[C@H](C(=O)N1CCCC[C@H]1C(=O)O[C@H](CCc1ccc(OC)c(OC)c1)c1cccc(OCCN2CCOCC2)c1)c1cc(OC)c(OC)c(OC)c1 [Shield 1]	induced CGBE	CGBE and mCherry were expressed
CC(C)c1ccc(C(=O)O)cc1 [cumate]	induced ABE	ABE and BFP were expressed
COc1cc(Cc2cnc(N)nc2N)cc(OC)c1OC [trimethoprim]	induced CBE	CBE and eGFP were expressed
